One series has as its system gastric organoids. As to the kind of experiment: Inhibition of PEEPA-induced organoid growth by pathway inhibitors. It is filed as cell-based, mouse. The protocol:
For JAK‐Stat, MEK1 and EGFR inhibition, organoid cultures were respectively treated with Ruxotilinib (15 µM, Selleck, #s1039), U0126 (20 µM, Selleck, #s1102) and Afatinib (1 µM, Selleck, #s1011). The inhibitor was prepared following the manufacturer's instruction.

The conditions of series [1]: cited from earlier work. From the text: Herein, by analyzing AG model mice and patient samples with genetic tracing, organoid cultures, and RNA‐seq, we uncovered GSC defects as a critical AG pathogenic factor, associated with decreased signaling of EGF, an important GSC niche molecule. […] We wanted to test their therapeutic effect on AG model mice generated with n‐methyl‐n‐nitro‐n‐nitrosoguanidine (MNNG) and ranitidine (Figure 1A).

Another series relates to AG model mice. As to the kind of experiment: AG mouse model (MNNG + ranitidine): histology and histopathology scoring. The following applies: comparison Moludan, Sijunzi decoction, berberine. It is filed as in vivo. The protocol: (§1) For establishment of a mouse model of atrophic gastritis, normal mice had free access to water containing N‐methyl‐N‐nitro‐N‐nitrosoguanidine (MNNG, […]). Moreover, the mice were given 400 µL of ranitidine (8 mg mL^−1) in solution at a dose of 150 mg kg^−1 daily. After 20 weeks, the mice were euthanized and examined.
(§2) Periplaneta americana insects were cultivated in an industrialized facility and the ethanol extract of (PEEPA) was prepared with a standardized method, which was dissolved in the vehicle containing water, 15% glycerol and 0.2% potassium sorbate. PEEPA‐derived peptides (PEEPA‐P5) were dissolved to 500 ng mL^−1 in water for in vitro experiments and to 1 mg mL^−1 for in vivo experiments. Mice were administrated with PEEPA, PEEPA‐P5, or vehicle through oral gavage daily for 2 or 4 weeks.
For murine gastritis samples, histologic scoring was blindly done following standard criteria. In brief, the oxyntic atrophy scoring was determined by the absence of parietal and chief cells in mucosa and the gastritis histology index has three categories, inflammation, epithelial defects, and oxyntic atrophy. A larger score represents a more severe gastritis.

For series [2], the system named is EGFR-Stat1 and EGFR-ERK signaling in AG organoids. As to the kind of experiment: Western blot of EGFR signaling in AG patient-derived gastric organoids. It is filed as cell-based, human. The following applies: organoids from AG patients. The protocol: (§3) The gastric antrum of mice was harvested and the middle part was cut open. After cleaning in PBS containing 1% pencillin‐streptomycin (PS) for several times, the food residue and other impurities were completely removed. The gastric gland epithelial layer was separated from the muscle layer with forceps under the stereoscope. The epithelial layer was cut into 2.5 mm long fragments, which were digested in 2.5 mM EDTA/DPBS at 4 °C for 1 h. The gland fragments were filtered through a 70 µm strainer (Thermo Fisher), washed with cold DPBS buffer, and centrifuged at 1000 rpm for 5 min. Afterward, the gland sediments were suspended in growth factor reduced phenol‐free Matrigel (Corning) and seeded into 48‐well plate. […] At different time points (Day 1, 3, 5, and 7), the organoids were observed under inverted microscope, and the organ diameter and bud numbers were measured to determine the levels of cell proliferation. […]
(§4) results were visualized and quantified using the FluoChem M system (ProteinSimple).
(§5) Cell culture and cell viability assay: Human gastric normal epithelial cell line GES-1 was cultured in DMEM medium containing 10% fetal bovine serum and 1% pencillin-streptomycin at 37℃ with 5% CO2. […] After 3 days, substrate tetrazolium salt was added to each sample and incubated at 37℃ for 2 hrs and the absorbance at 450 nm was measured using BioTeck. […]
(In general: In western blotting, separated proteins are transferred to a membrane and probed.)

For series [3], the system named is EGFR-Stat1 and EGFR-ERK signaling in NAG organoids. As to the kind of experiment: Western blot of EGFR signaling in NAG patient-derived gastric organoids. It is filed as cell-based, human. The following applies: organoids from NAG patients. The procedure:
as §3, §4, §5

The conditions of series [4]: no reference given; cited from earlier work. From the text: Moreover, PEEPA‐P5 has unique properties compared to EGF. […] Third, PEEPA‐induced ERK and Stat1 activation is much slower.
For series [5], the system named is EGFR, ERKs, Stat1, Akt1, Stat3 in GES-1 cells. As to the kind of experiment: Western blot of EGFR downstream signaling in GES-1 cells. The following applies: EGF 0.4 µM. It is filed as cell-based, human. The procedure:
Western Blot: Tissue proteins were isolated using T-PER Tissue Protein Extraction Reagent (Thermo Fisher, #78510). Proteins of cultured cells were extracted using RIPA lysis buffer supplemented with 1 mM PMSF, […] pepstatin, leupeptin, and aprotonin. Equal amounts of total proteins were subjected to SDS-PAGE and transferred to PVDF membrane (Millipore). The primary antibodies include: p-Stat1 […]
as §4
Cell culture and cell viability assay: Human gastric normal epithelial cell line GES-1 was cultured in DMEM medium containing 10% fetal bovine serum and 1% pencillin- […]
streptomycin at 37℃ with 5% CO2. […]
(§6) TRIzol reagent. cDNA was reverse transcribed from 500 ng RNA by PrimeScript RT […]
(§7) Light Cycler 480. The sequences of primers are as follows: Gastrin-F: 5’- GGACAGGGACCAATGAGG-3’; Gastrin-R: 5’-
(§8) -3’; SST-F: 5’-ACCGGGAAAAGGAACTGG-3’;
(§9) SST-R: 5’-TTGCTGGGTTCGAGTTGGC-3’; Muc5ac-F: 5’-
(§10) AGCCTAGCCACCACCTTAG-3’; TFF1-F: 5’-[…]-3’;
(§11) TFF1-R: 5’-[…]-3’; TFF2-F: 5’- TGCTCTGGTAGAGGGCGAG-3’; TFF2-R: 5’-CGAGCTAGAGTCAAAGAG-3’;
(§12) Spdef-F: 5’-GGAGGAGACTCTTCTGAAG-3’; Spdef-R: 5’-
(§13) -3’. For human genes, hPCNA-F: 5’-
(§14) CAGCGGTAGGTGTCGAAGC-3’; hTFF2-F: 5’-[…]-
(§15) 3’; hTTF2-R: 5’-[…]-3’; hMuc5ac-F: 5’-
(§16) GCGCACAGAGGATGACAGT-3’; hATP4b-F: 5’-[…]-
(§17) 3’; hATP4b-R: 5’-[…]-3’; hGastrin-F: 5’-
GCCCCTGTACCTAAGGGTG-3’; hAxin2-F: 5’- […]

In series [6] the test system is liver and kidney of AG model mice. As to the kind of experiment: Body weight and liver/kidney histology in AG model mice. It is filed as in vivo, mouse. The following applies: PEEPA-P5; H&E, representative of three mice. The protocol:
as §1, §2

A short description of series [7]: Retention / stability in murine stomach (P5-fluorescein). Format: in vivo.
In a further series the test system is GES-1 cells. As to the kind of experiment: Cell viability assay (CCK-8). It is filed as cell-based, human. The protocol: Cell culture and cell viability assay: Human gastric normal epithelial cell line GES-1 was cultured in DMEM medium containing 10% fetal bovine serum and 1% pencillin-streptomycin at 37℃ with 5% CO2. For cell viability assay, Cell Counting Kit-8 (CCK-8) was purchased from KeyGEN BioTECH Corp., Ltd. The cells were cultured in 96-wells plate and PEEPA-P5 was added in each well with different concentrations. After 3 days, substrate tetrazolium salt was added to each sample and incubated at 37℃ for 2 hrs and the absorbance at 450 nm was measured using BioTeck. […]
as §6, §7, §8, §9, §10, §11, §12, §13, §14, §15, §16, §17
GCCCCTGTACCTAAGGGTG-3’; hAxin2-F: 5’-
RNA sequencing: The gastric muscle layer was removed under the stereoscope and the […]

Entries after “also recorded” stand apart in the source; their conditions may differ. Where no end group is shown, it is not given here.

On to `N#CC[C@H](C1CCCC1)n1cc(-c2ncnc3[nH]ccc23)cn1` [Ruxo, ruxolitinib], for which the “effect on PEEPA-induced organoid growth and differentiation” value with gastric organoids (Jak inhibitor Ruxo 15 µM, n=6 (growth), n=3 (qPCR)) was “impeded PEEPA‐induced organoid growth and differentiation”. Besides, the “expression of differentiation markers in gastric organoids” value with gastric organoids (Ruxo, qPCR, mean ± SD, n=3) is given as “suppressed the expression of differentiation markers”.

With `N#CC(=C(/N)Sc1ccccc1N)/C(C#N)=C(/N)Sc1ccccc1N` [U0126], in the series with gastric organoids (ERK inhibitor U0126 20 µM, mean ± SD, n=3), the “effect on PEEPA-induced organoid growth” value was “suppressed PEEPA‐induced organoid growth”.

In the case of `CN(C)C/C=C/C(=O)Nc1cc2c(Nc3ccc(F)c(Cl)c3)ncnc2cc1O[C@H]1CCOC1` [afatinib], in the series on gastric organoids (EGFR inhibitor afatinib 1 µM, mean ± SD, n=3), the “effect on PEEPA-induced organoid growth” value is reported as “blocked the pro‐growth effect of PEEPA on gastric organoids”.

On to `COc1ccc2cc3[n+](cc2c1OC)CCc1cc2c(cc1-3)OCO2` [berberine, reference compound], for which, in series [1] (ref [16]), the “reported therapeutic effects on AG” value is recorded as “therapeutic effects on AG”. The “restoration of gland structure, gastritis histology index and oxyntic atrophic score (compared with PEEPA)” value in the series with AG model mice is recorded as “only PEEPA restored the gastric gland structure”.

As to “EGF: GSC niche molecule; EGF protein used as comparison”, the “sensitivity to EGF, AG organoids” value in series [2] is listed as “organoids from AG patients are insensitive”. The “sensitivity to EGF, NAG organoids” value in series [3] is on record as “organoids from NAG patients are highly sensitive to EGF”. Moreover, the “stability in acidic stomach environment” value in [4] is listed as “instability of EGF in acidic stomach environment”. Further, in [1] (ref [15]), the “secretion of defensin 3” value was “promotes secretion of defensin 3”. Also, in [5], the “downstream signaling activated by EGF” value is “activates ERK, Akt1, and Stat1/3 signaling”.

On to PAAEPVPLVKQD [PEEPA-P5], for which the “effect on liver or kidney” value in [6] is “little effect on the kidney or liver structure; also recorded: no obvious effect on the liver or kidney”. Moreover, in [7] (inferred from retention of P5-fluorescein in mouse stomach), the “stability in the acidic environment of the stomach” value is “relatively stable in the acidic environment of the stomach”. In [7] (mouse, oral gavage, measured using P5-fluorescein (PEEPA-P5-FITC), fluorescence at different time points), the “retention time in the stomach” value amounted to 3.09 h. In the series on GES-1 cells, the midpoint of inhibition, the IC50, lay at 284 µM. The “toxicity towards GES-1 cells” value in the series with GES-1 cells (CCK-8, 3 days) is “low cell toxicity”.
